# Experimental data from US11471478B2, “Use of cyclodextrins in diseases and disorders involving phospholipid dysregulation” (priority 2017, dated 2022).
# pIC50: −log10 of the molar value. Values joined by “and” are separate entries in the source; they are usually repeats but may differ in a detail not shown here. Equal values may be shown once. Read-outs that look alike come from different tables or passages of the source.
# Tests used:
# [1] = tested on: MDA-MB 231 and MCF-7 human breast epithelial cell lines; assay: Wound healing / gap closure migration assay; format: cell-based; details: 2 h treatment, MDA-MB 231 and MCF-7
# Experimental: Published results have shown that β-CD inhibits human MDA-MB 231 cell migration (Guerra F S, Sampaio LdS, et al. (2016) Translational Medicine Communications 1:3). This inhibition was attributed to the ability of β-CD to “deplete cholesterol”. β-CD, however, depletes also phospholipids. […] Cells were cultured in 24-well culture plates (Cytoselect CBA-120, 0.9 mm wound healing/gap closure migration assay) for 24 h with wound healing insert in place. Cells were then treated for 2 h with HP-β-CD, HP-α-CD, or control. Protocol: Warm up the 24-well plate (CBA-120, Cell BioLabs Inc.) with 0.9 mm CytoSelect Wound Healing Inserts at room temperature for 10 min. Using sterile forceps, orient the desired number of inserts in the plate wells with their “wound field” aligned in the same direction. […] Add 500 μL of cell suspension to each well by carefully inserting the pipette tip through the open end at the top of the insert. For optimal cell dispersion, add 250 μL of cell suspension to either side of the open ends at the top of the insert. Incubate cells in a cell culture incubator for 12-24 hours. Carefully remove the insert from the well to begin the wound healing assay. Use sterile forceps to grab and lift the insert slowly from the plate well. Slowly aspirate and discard the media from the wells. Wash wells with media to remove dead cells and debris. Finally, add media to wells to keep cells hydrated. Repeat wash if wells still have debris or unattached cells. When washing is complete, add media with FBS and/or compounds to continue cell culture and wound healing process. Agents that inhibit or stimulate cell migration can be added directly to the wells. Incubate cells in a cell culture incubator (2 hours) and then wash cells with PBS and then add fresh media without compounds. Incubate 12-24 hours before wash and fixing. Remove the fixation solution and add 400 μL of Cell Stain Solution to each well. Allow the stain to incubate with the cells for 15 minutes at room temperature. Aspirate and discard the solution. Carefully wash each stained well 3× with deionized water. Discard washes and allow cells to dry at room temperature. Cells that migrated into the wounded area or protruded from the border of the wound were visualized and photographed under an inverted microscope. Determine the surface area of the defined wound area: Total Surface Area=0.9 mm×length. Determine the surface area of the migrated cells into the wound area: Migrated Cell Surface Area=length of cell migration (mm)×2× length. Percent Closure (%)=Migrated Cell Surface Area/Total Surface Area×100 (see FIG. 36)
# [2] = tested on: MDA-MB-231 breast cancer cells; assay: NSG mice injected with human MDA-MB-231 breast cancer cells; format: in vivo
# Experimental: NSG mice (NOD.Cg-Prkdcscid Il2rgtm1Wjl/SzJ, strain #005557 (10 wk old) were obtained from Jackson Laboratories (Bar Harbor, Me.), housed in isolated quarters, and fed with autoclaved water and food.
# An MDA-MB-231 cell line was obtained (ATCC) and kept frozen in liquid nitrogen. Upon start of culture, cells were thawed (1.5 min in 37° C. water) and transferred to DMEM/F-12 supplemented with 5% FBS, 2 mM L-glutamine, 1 mM sodium pyruvate, and 0.02 mM non-essential amino acids. Cells were grown to several millions in 60 mm dishes at 70-80% confluence. Before injection, cells were briefly rinsed twice in PBS followed by Versene (EDTA, Invitrogen) and placed on ice with excess phosphate-buffered saline and phenol red-free matrigel basement membrane extract to a concentration of about 15 mg/mL matrigel. 100 μL cell mixture (20,000 cells or saline only) were injected into the lactiferous duct of the 3rd or 4th mammary glands under brief isofluorane anesthesia. Groups of 15 mice each were injected IP with 800 mg/kg of HP-α-CD, HP-β-CD per week (over four days, Mon, Tue, Thu, Fri), or saline (control) for six weeks. Size of the primary tumor was measured weekly.
# Breast tissue were palpated and measured twice a week with a micro-metric analytical device scaled to 1 mm precision. Mice were weighed weekly on a digital scale (0.1 g precision).
# At the end of the study period, mice were anaesthetized with isofluorane with 1× phosphate-buffered saline (PBS) and subsequently with 4% formaldehyde in PBS. Tissue from lung and liver were removed and fixated in formalin for microscopic examination. Metastases were visualized and counted by tissue embedding in paraffin and sectioning with immunohistochemistry and histological stain (H&E) and immunostained with anti-HLA antibody. After blocking for 1 h with BSA (5%, frac V), the anti-HLA was incubated at 4° C. overnight, washed for 1 h in PBS, then incubated with biotinylated anti-mouse IgG for 1 h at room temperature. After washing with PBS, metastases were detected on the slide using Envision (Dako).
# After blood collection, whole blood samples were centrifuged (at 10,000 m/s^2 for 15 min and then at 100,000 m/s^2 for 10 min), and plasma was isolated. The samples were stored at −80° C. until analysis.
# Prior to analysis (30 min), samples and assay reagents were equilibrated to room temperature. The samples were run at a 1:4 dilution and quantified in duplicate using a multi-plex mouse panel for quantification of IL-1β, IL-18, IL-6, IL-8, IL-17A, and GM-CSF (Bio-Plex Pro assays, Bio-Rad Laboratories) on a Luminex Bio-Plex 200 System (Bio-Rad Laboratories).
# [3] = cited from earlier work
# [4] = cited from earlier work; remark: listed apart in the source
# [5] = rats, suppositories containing triglycerides (Witepsol H5); cited from earlier work
# [6] = cited from earlier work; for Permitted Daily Exposure (PDE) threshold, parenteral: CHMP 2014; for Permitted Daily Exposure (PDE) threshold, parenteral, revised: Oct. 9, 2017
# cats = details: doses of 4-8 g/kg; cited from earlier work
# children with NPC = details: doses of up to 1000 mg/kg/d; cited from earlier work
# [7] = parenteral, 12 g twice daily for 15 days; cited from earlier work
# [8] = long-term parenteral, 200 mg/kg; cited from earlier work
# SwN2a cells = details: cited from earlier work
# Tg19959 mice = details: four months of subcutaneous administration; cited from earlier work
# [9] = cited from earlier work; remark: listed apart in the source
# whole blood = details: cited from earlier work
# rats [10] = details: cited from earlier work
# [11] = cited from earlier work; remark: listed apart in the source
# mice/rats = details: in vivo; cited from earlier work
# BBB = details: cited from earlier work; for Transport across BBB: 2 h
# keratinocytes = details: cited from earlier work
# rats [12] = details: s.c. single dose 0.100 g/kg; cited from earlier work
# erythrocytes [13] = details: cited from earlier work
# erythrocytes [14] = details: cited from earlier work; remark: listed apart in the source
# [15] = cited from earlier work; remark: listed apart in the source
# [16] = 2.1% α-CD added to Western diet; cited from earlier work
# [17] = tested on: fibroblasts of lysosomal storage diseases; details: about 6 mM α-CD, about 8 mM HP-β-CD; cited from earlier work
# rats [18] = details: cited from earlier work; remark: listed apart in the source
# rats [19] = details: cited from earlier work; remark: listed apart in the source
# [20] = IP 800 mg/kg per week for six weeks
smiles,measurement,setting,value
"CC(O)COC[C@H]1O[C@@H]2O[C@H]3[C@H](O)[C@@H](O)[C@@H](O[C@H]4[C@H](O)[C@@H](O)[C@@H](O[C@H]5[C@H](O)[C@@H](O)[C@@H](O[C@H]6[C@H](O)[C@@H](O)[C@@H](O[C@H]7[C@H](O)[C@@H](O)[C@@H](O[C@H]8[C@H](O)[C@@H](O)[C@@H](O[C@H]1[C@H](O)[C@H]2O)O[C@@H]8COCC(C)O)O[C@@H]7COCC(C)O)O[C@@H]6COCC(C)O)O[C@@H]5COCC(C)O)O[C@@H]4COCC(C)O)O[C@@H]3COCC(C)O (stereo partly drawn) [HP-β-CD, hydroxypropyl-beta-cyclodextrin]","cell migration / wound closure, concentration dependence",[1],migration decreased with higher concentration
same,"Tumor volume, median",[2]; [20],378 mm3
same,effect on tumor volume,[2]; [20],effective
same,"plasma cytokines (IL-1β, IL-18, IL-6, IL-8, IL-17A, GM-CSF) versus Vehicle",[2]; conventional 0.05 level,significant in four other markers (not in IL-8)
same,mice that did not develop lung metastases,[2]; groups of 15 mice,3 mice
same,mice who died,[2]; groups of 15 mice,two
same,half-life (t1/2) after i.v. in rats,[3],20 min
same,oral absorption in rats,[3],≤3%
same,excreted after i.v. unchanged in urine,[4],~90%
same,rectal absorption,[5],26%
same,"Permitted Daily Exposure (PDE) threshold, parenteral",[6],10 mg/kg/day
same,"Permitted Daily Exposure (PDE) threshold, parenteral, revised",[6],200 mg/kg/day
same,hearing,cats,causes permanent hearing loss
same,tolerability,children with NPC,well tolerated
same,side effects,[7],No side effects were observed
same,bone mineral density (BMD),[8],decrease bone mineral density (BMD)
same,level of membrane cholesterol,SwN2a cells,reduced
same,levels of Aβ42,SwN2a cells,dramatically lowered
same,spatial learning and memory deficits,Tg19959 mice,significantly improved spatial learning and memory deficits
same,Solubility in water,[9],>600 g/l and >600 ^2) g/l
same,whole blood TD50,whole blood,9 mM/L
same,"i.v. toxicity, 1 g/kg daily","rats [10]; rat, in vivo, iv",no signs ^6)
same,"i.v. toxicity, 500 mg/kg",[11],no damage
same,LD50 i.v./i.p. in mice/rats,mice/rats,10000 mg/kg
same,Transport across BBB,BBB; 1 mM,6.6 (1 mM) %
same,BBB breakdown,BBB,2.5 mM
same,toxicity on the BBB model,BBB,similarly safe
same,caspase-dependent apoptotic cell death,keratinocytes,not
"OC[C@H]1O[C@@H]2O[C@H]3[C@H](O)[C@@H](O)[C@@H](O[C@H]4[C@H](O)[C@@H](O)[C@@H](O[C@H]5[C@H](O)[C@@H](O)[C@@H](O[C@H]6[C@H](O)[C@@H](O)[C@@H](O[C@H]7[C@H](O)[C@@H](O)[C@@H](O[C@H]1[C@H](O)[C@H]2O)O[C@@H]7CO)O[C@@H]6CO)O[C@@H]5CO)O[C@@H]4CO)O[C@@H]3CO [α-CD, alpha-cyclodextrin]",Nephrosis (light microscopy),rats [12],0.100 no changes
same,half-life (t1/2) after i.v. in rats,[3],25 min
same,oral absorption in rats,[3],2-3%
same,excreted after i.v. unchanged in urine,[4],~90%
same,hemolytic activity,erythrocytes [13]; comparison between cyclodextrins,lower than that of both β-CD and HP-β-CD
same,pIC50,erythrocytes [13]; read-out: hemolytic IC50,1.80
same,reduction of phospholipids,"erythrocytes [14]; 10 mM, FIG. 3",30%
same,extraction of cholesterol,erythrocytes [14],negligible even at hemolytic concentrations
same,found in urine within 6-8 h post oral administration,[15],1.6% and 2.0%
same,decrease of plasma phospholipids,[16],17.5%
same,"Permitted Daily Exposure (PDE) threshold, parenteral",[6],0.02 mg/kg/day
same,"Permitted Daily Exposure (PDE) threshold, parenteral, revised",[6],200 mg/kg/day
same,reduction of lysosomal storage,[17],more effective in reducing lysosomal storage than about 8 mM HP-β-CD
same,LD50 with bolus i.v. injections,rats [18],1000 mg/kg
same,Nephrosis/Death,rats [19]; s.c. daily doses 0.100 g/kg,0.100 no nephrosis
same,Nephrosis,rats [19]; s.c. daily doses 1.000 g/kg,"1.000 all had severe nephrosis,"
same,Death,rats [19]; s.c. up to 7 daily doses of 1.000 g/kg,one rat died (after 2 days)
same,whole blood TD50,whole blood,11 mM/L
same,"i.v. toxicity, 1 g/kg daily",rats [10]; 1 g/kg daily,1 died @ 2 d
same,LD50 i.v./i.p. in mice/rats,mice/rats,500 to 1000 mg/kg
same,Transport across BBB,BBB; 0.5 mM,21.5 (0.5 mM) %
same,toxicity on the BBB model,BBB,more toxic
same,caspase-dependent apoptotic cell death,keratinocytes,not
